Reference: ChEMBL document CHEMBL4311942, “Design of Trp-Rich Dodecapeptides with Broad-Spectrum Antimicrobial Potency and Membrane-Disruptive Mechanism” (J Med Chem, 2019)
≈ marks a conversion by molar mass, not a printed value. Where a SMILES comes first, the peptide text is derived from it.

Legend:
Pseudomonas aeruginosa = experiment: Antibacterial activity against Pseudomonas aeruginosa 25349 clinical isolate incubated for 18 to 24 hrs by broth microdilution method; type: functional
Escherichia coli [1] = experiment: Antibacterial activity against Escherichia coli 20411 clinical isolate incubated for 18 to 24 hrs by broth microdilution method; type: functional
[2] = Therapeutic index, ratio of MHC for human RBC to geometric mean of peptide MIC for Escherichia coli ATCC 25922; type: toxicity; details: pooled result: one value given for 6 cell lines, strains, targets or settings, read-out: TI
Staphylococcus aureus [3] = experiment: Antibacterial activity against Staphylococcus aureus ATCC 29213 incubated for 18 to 24 hrs by broth microdilution method; type: functional
Staphylococcus aureus [4] = experiment: Antibacterial activity against Staphylococcus aureus ATCC 25923 incubated for 18 to 24 hrs by broth microdilution method; type: functional
Escherichia coli [5] = experiment: Antibacterial activity against Escherichia coli ATCC 25922 incubated for 18 to 24 hrs by broth microdilution method; type: functional
Salmonella typhimurium = experiment: Antibacterial activity against Salmonella enterica serovar typhimurium C77-31 incubated for 18 to 24 hrs by broth microdilution method; type: functional, Salmonella enterica subsp. enterica serovar Typhimurium
[6] = Cytotoxicity against mouse RAW264.7 cells assessed as cell survival at < 32 uM after 24 hrs by MTT assay; type: cell-based; details: read-out: Activity
Erythrocyte = experiment: Haemolytic activity in human erythrocytes assessed as lowest concentration causing 5% hemolysis after 1 hr; type: ADME, cell-based
Escherichia coli [7] = experiment: Antibacterial activity against Escherichia coli UB1005 incubated for 18 to 24 hrs by broth microdilution method; type: functional
Staphylococcus aureus [8] = experiment: Antibacterial activity against Staphylococcus aureus 11011 incubated for 18 to 24 hrs by broth microdilution method; type: functional
[9] = tested on: Staphylococcus epidermidis; experiment: Antibacterial activity against Staphylococcus epidermidis ATCC 12228 incubated for 18 to 24 hrs by broth microdilution method; type: functional
Acinetobacter baumannii [10] = experiment: Antibacterial activity against Acinetobacter baumannii AB1901 clinical isolate incubated for 18 to 24 hrs by broth microdilution method; type: functional
Acinetobacter baumannii [11] = experiment: Antibacterial activity against Acinetobacter baumannii AB1902 clinical isolate incubated for 18 to 24 hrs by broth microdilution method; type: functional

Compound	MIC (Pseudomonas aeruginosa)	MIC (Escherichia coli [1])	selectivity ratio [2]	MIC (Staphylococcus aureus [3])	MIC (Staphylococcus aureus [4])	MIC (Escherichia coli [5])	MIC (Salmonella typhimurium)	viability at 24 h [6]	MHC (Erythrocyte)	MIC (Escherichia coli [7])	MIC (Staphylococcus aureus [8])	MIC [9]	MIC (Acinetobacter baumannii [10])	MIC (Acinetobacter baumannii [11])
CC(C)[C@H](NC(=O)[C@H](CCCCN)NC(=O)[C@H](Cc1c[nH]c2ccccc12)NC(=O)[C@H](CCCCN)NC(=O)[C@@H](NC(=O)[C@H](CCCCN)NC(=O)[C@H](Cc1c[nH]c2ccccc12)NC(=O)[C@H](CCCCN)NC(=O)[C@@H](NC(=O)[C@H](CCCCN)NC(=O)[C@@H](N)Cc1c[nH]c2ccccc12)C(C)C)C(C)C)C(=O)N[C@@H](CCCCN)C(N)=O (H-WKVKWKVKWKVK-NH2)	4 µM (≈ 6.57 µg/mL)	1 µM (≈ 1.64 µg/mL)	144	1 µM (≈ 1.64 µg/mL)	2 µM (≈ 3.28 µg/mL)	2 µM (≈ 3.28 µg/mL)	2 µM (≈ 3.28 µg/mL)	> 90%	> 128 µM	2 µM (≈ 3.28 µg/mL)	2 µM (≈ 3.28 µg/mL)	2 µM (≈ 3.28 µg/mL)	2 µM (≈ 3.28 µg/mL)	1 µM (≈ 1.64 µg/mL)
C[C@@H](O)[C@H](NC(=O)[C@H](CCCCN)NC(=O)[C@H](Cc1c[nH]c2ccccc12)NC(=O)[C@H](CCCNC(=N)N)NC(=O)[C@H](Cc1ccccc1)NC(=O)[C@H](CCCNC(=N)N)NC(=O)[C@@H](N)Cc1c[nH]c2ccccc12)C(=O)N[C@@H](CCCNC(=N)N)C(=O)N[C@@H](Cc1c[nH]c2ccccc12)C(=O)N[C@@H](CCCNC(=N)N)C(=O)N[C@@H](Cc1ccccc1)C(=O)N[C@@H](CCCCN)C(N)=O (H-WRFRWKTRWRFK-NH2)	8 µM (≈ 14.8 µg/mL)	2 µM (≈ 3.7 µg/mL)	102	2 µM (≈ 3.7 µg/mL)	2 µM (≈ 3.7 µg/mL)	4 µM (≈ 7.41 µg/mL)	2 µM (≈ 3.7 µg/mL)	> 90%	> 128 µM	4 µM (≈ 7.41 µg/mL)	2 µM (≈ 3.7 µg/mL)	2 µM (≈ 3.7 µg/mL)	2 µM (≈ 3.7 µg/mL)	4 µM (≈ 7.41 µg/mL)
N=C(N)NCCC[C@H](NC(=O)[C@H](Cc1ccccc1)NC(=O)[C@H](CCCNC(=N)N)NC(=O)[C@H](Cc1c[nH]c2ccccc12)NC(=O)[C@H](CCCNC(=N)N)NC(=O)[C@H](Cc1ccccc1)NC(=O)[C@H](CCCNC(=N)N)NC(=O)[C@H](Cc1c[nH]c2ccccc12)NC(=O)[C@H](CCCNC(=N)N)NC(=O)[C@H](Cc1ccccc1)NC(=O)[C@H](CCCNC(=N)N)NC(=O)[C@@H](N)Cc1c[nH]c2ccccc12)C(N)=O (H-WRFRWRFRWRFR-NH2)	8 µM (≈ 15.6 µg/mL)	4 µM (≈ 7.82 µg/mL)	28.6	1 µM (≈ 1.95 µg/mL)	1 µM (≈ 1.95 µg/mL)	8 µM (≈ 15.6 µg/mL)	2 µM (≈ 3.91 µg/mL)	> 90%	64 µM	4 µM (≈ 7.82 µg/mL)	2 µM (≈ 3.91 µg/mL)	2 µM (≈ 3.91 µg/mL)	2 µM (≈ 3.91 µg/mL)	2 µM (≈ 3.91 µg/mL)
CC[C@H](C)[C@H](NC(=O)[C@H](CCCNC(=N)N)NC(=O)[C@H](Cc1c[nH]c2ccccc12)NC(=O)[C@H](CCCNC(=N)N)NC(=O)[C@@H](NC(=O)[C@H](CCCCN)NC(=O)[C@H](Cc1c[nH]c2ccccc12)NC(=O)[C@H](CCCNC(=N)N)NC(=O)[C@@H](NC(=O)[C@H](CCCNC(=N)N)NC(=O)[C@@H](N)Cc1c[nH]c2ccccc12)[C@@H](C)CC)[C@@H](C)O)C(=O)N[C@@H](CCCCN)C(N)=O (H-WRIRWKTRWRIK-NH2)	8 µM (≈ 14.3 µg/mL)	2 µM (≈ 3.57 µg/mL)	114	2 µM (≈ 3.57 µg/mL)	2 µM (≈ 3.57 µg/mL)	4 µM (≈ 7.14 µg/mL)	2 µM (≈ 3.57 µg/mL)	> 90%	> 128 µM	2 µM (≈ 3.57 µg/mL)	2 µM (≈ 3.57 µg/mL)	2 µM (≈ 3.57 µg/mL)	2 µM (≈ 3.57 µg/mL)	2 µM (≈ 3.57 µg/mL)
CC(C)C[C@H](NC(=O)[C@H](CCCNC(=N)N)NC(=O)[C@H](Cc1c[nH]c2ccccc12)NC(=O)[C@H](CCCNC(=N)N)NC(=O)[C@H](CC(C)C)NC(=O)[C@H](CCCNC(=N)N)NC(=O)[C@H](Cc1c[nH]c2ccccc12)NC(=O)[C@H](CCCNC(=N)N)NC(=O)[C@H](CC(C)C)NC(=O)[C@H](CCCNC(=N)N)NC(=O)[C@@H](N)Cc1c[nH]c2ccccc12)C(=O)N[C@@H](CCCNC(=N)N)C(N)=O (H-WRLRWRLRWRLR-NH2)	4 µM (≈ 7.41 µg/mL)	2 µM (≈ 3.7 µg/mL)	128	1 µM (≈ 1.85 µg/mL)	2 µM (≈ 3.7 µg/mL)	4 µM (≈ 7.41 µg/mL)	2 µM (≈ 3.7 µg/mL)	> 90%	> 128 µM	2 µM (≈ 3.7 µg/mL)	1 µM (≈ 1.85 µg/mL)	2 µM (≈ 3.7 µg/mL)	2 µM (≈ 3.7 µg/mL)	4 µM (≈ 7.41 µg/mL)
CC(C)C[C@H](NC(=O)[C@H](CCCNC(=N)N)NC(=O)[C@H](Cc1c[nH]c2ccccc12)NC(=O)[C@H](CCCNC(=N)N)NC(=O)[C@@H](NC(=O)[C@H](CCCNC(=N)N)NC(=O)[C@H](Cc1c[nH]c2ccccc12)NC(=O)[C@H](CCCNC(=N)N)NC(=O)[C@H](CC(C)C)NC(=O)[C@H](CCCNC(=N)N)NC(=O)[C@@H](N)Cc1c[nH]c2ccccc12)[C@@H](C)O)C(=O)N[C@@H](CCCNC(=N)N)C(N)=O (H-WRLRWRTRWRLR-NH2)	16 µM (≈ 29.4 µg/mL)	2 µM (≈ 3.68 µg/mL)	90.5	2 µM (≈ 3.68 µg/mL)	2 µM (≈ 3.68 µg/mL)	4 µM (≈ 7.36 µg/mL)	4 µM (≈ 7.36 µg/mL)	> 90%	> 128 µM	4 µM (≈ 7.36 µg/mL)	2 µM (≈ 3.68 µg/mL)	2 µM (≈ 3.68 µg/mL)	4 µM (≈ 7.36 µg/mL)	4 µM (≈ 7.36 µg/mL)
C[C@@H](O)[C@H](NC(=O)[C@H](CCCNC(=N)N)NC(=O)[C@H](Cc1c[nH]c2ccccc12)NC(=O)[C@H](CCCNC(=N)N)NC(=O)[C@@H](NC(=O)[C@H](CCCNC(=N)N)NC(=O)[C@H](Cc1c[nH]c2ccccc12)NC(=O)[C@H](CCCNC(=N)N)NC(=O)[C@@H](NC(=O)[C@H](CCCNC(=N)N)NC(=O)[C@@H](N)Cc1c[nH]c2ccccc12)[C@@H](C)O)[C@@H](C)O)C(=O)N[C@@H](CCCNC(=N)N)C(N)=O (H-WRTRWRTRWRTR-NH2)	> 64 µM	2 µM (≈ 3.63 µg/mL)	50.8	4 µM (≈ 7.26 µg/mL)	8 µM (≈ 14.5 µg/mL)	4 µM (≈ 7.26 µg/mL)	4 µM (≈ 7.26 µg/mL)	> 90%	> 128 µM	4 µM (≈ 7.26 µg/mL)	4 µM (≈ 7.26 µg/mL)	8 µM (≈ 14.5 µg/mL)	32 µM (≈ 58.1 µg/mL)	32 µM (≈ 58.1 µg/mL)
CC(C)[C@H](NC(=O)[C@H](CCCNC(=N)N)NC(=O)[C@H](Cc1c[nH]c2ccccc12)NC(=O)[C@H](CCCNC(=N)N)NC(=O)[C@@H](NC(=O)[C@H](CCCCN)NC(=O)[C@H](Cc1c[nH]c2ccccc12)NC(=O)[C@H](CCCNC(=N)N)NC(=O)[C@@H](NC(=O)[C@H](CCCNC(=N)N)NC(=O)[C@@H](N)Cc1c[nH]c2ccccc12)C(C)C)[C@@H](C)O)C(=O)N[C@@H](CCCCN)C(N)=O (H-WRVRWKTRWRVK-NH2)	32 µM (≈ 56.2 µg/mL)	4 µM (≈ 7.02 µg/mL)	80.8	2 µM (≈ 3.51 µg/mL)	4 µM (≈ 7.02 µg/mL)	4 µM (≈ 7.02 µg/mL)	4 µM (≈ 7.02 µg/mL)	> 90%	> 128 µM	2 µM (≈ 3.51 µg/mL)	4 µM (≈ 7.02 µg/mL)	4 µM (≈ 7.02 µg/mL)	8 µM (≈ 14 µg/mL)	8 µM (≈ 14 µg/mL)
CC(C)[C@H](NC(=O)[C@H](CCCNC(=N)N)NC(=O)[C@H](Cc1c[nH]c2ccccc12)NC(=O)[C@H](CCCNC(=N)N)NC(=O)[C@@H](NC(=O)[C@H](CCCCN)NC(=O)[C@H](Cc1c[nH]c2ccccc12)NC(=O)[C@H](CCCNC(=N)N)NC(=O)[C@@H](NC(=O)[C@H](CCCNC(=N)N)NC(=O)[C@@H](N)Cc1c[nH]c2ccccc12)C(C)C)C(C)C)C(=O)N[C@@H](CCCCN)C(N)=O (H-WRVRWKVRWRVK-NH2)	4 µM (≈ 7.02 µg/mL)	1 µM (≈ 1.75 µg/mL)	128	1 µM (≈ 1.75 µg/mL)	2 µM (≈ 3.51 µg/mL)	4 µM (≈ 7.02 µg/mL)	2 µM (≈ 3.51 µg/mL)	> 90%	> 128 µM	2 µM (≈ 3.51 µg/mL)	2 µM (≈ 3.51 µg/mL)	2 µM (≈ 3.51 µg/mL)	2 µM (≈ 3.51 µg/mL)	4 µM (≈ 7.02 µg/mL)
